Consider 25 molecules from PMC9964651, “Discovery of Ureido-Based Apcin Analogues as Cdc20-specific Inhibitors against Cancer” (Pharmaceuticals, 2023).

Where a name gives a salt, the structure may show the parent alone. Read-outs that look alike come from different tables or passages of the source.

Assay [1] relates to Hela. In words: In vitro antiproliferative assay (CCK-8). As to conditions: CCK-8, 48 h, mean ± SD. The class given is cell-based, human. The text has this: The experiment was repeated three times.
Assay [2] deals with Mda-mb-231. In words: In vitro antiproliferative assay (CCK-8). As to conditions: read-out: IC50 ± SD Mda-mb-231.
Protocol: (§1) Hela and MDA-MB-132 cells were grown in DMEM (Gibco) containing 10% FBS and 1% double antibody (penicillin 100 U/mL, streptomycin 100 μg/mL, Solarbio). […] All cell lines were purchased from the Xiangya Cell Bank, Central South University, Changsha, China, and incubated at 37 °C with 5% CO2 in a humidified atmosphere. […] Cytotoxicity assay was assessed using CCK-8 methods. The cells were seeded in a 96-well plate (2 × 10^3–3 × 10^3 cells/well), the 96-well plate was incubated at 37 °C with 5% CO2 in a humidified atmosphere, and the cells were grown in a monolayer; the original culture was discarded. A total of 100 μL of drug-containing medium with a specific concentration gradient was added and then cultivated for 48 h; 10 μL/well of CCK-8 solution was added, put in an incubator, and incubated for 1 h and read with a multi-function microplate reader at a wavelength of 450 nm. The inhibition rate was calculated, and the IC50 results were calculated by GraphPad Prism 7 software. The experiment was repeated three times.
In assay [3] the test system is Hepg2. In words: In vitro antiproliferative assay (CCK-8). As to conditions: read-out: IC50 ± SD Hepg2.
Protocol: as §1
The subject of assay [4] is Mcf-7. In words: In vitro antiproliferative assay (CCK-8). As to conditions: read-out: IC50 ± SD Mcf-7.
Protocol: as §1
The test system of assay [5] is four cancer-cell lines. In words: In vitro antiproliferative assay (CCK-8), cell line not given. As to conditions: Homo sapiens, read-out: IC50 (antiproliferative activity).

With `Cc1ncc([N+](=O)[O-])n1CCNC(=O)NC(Nc1ncccn1)C(Cl)(Cl)Cl` (stereo not shown) [Compound 1, 1-(2-(2-methyl-5-nitro-1H-imidazol-1-yl)ethyl)-3-(2,2,2-trichloro-1-(pyrimidin-2-ylamino)ethyl)urea], the IC50 (in general, the midpoint of a concentration-inhibition curve) in assay [1] (Homo sapiens, HeLa) is more than 100 µM; in assay [2] (Homo sapiens, MDA-MB-231, 48 h) it was more than 100 µM; in assay [3] (Homo sapiens, HepG2, 48 h), more than 100 µM; in assay [4] (Homo sapiens, MCF7, 48 h), more than 100 µM; in assay [5], more than 80 µM.
Take `Cc1c(Cl)nc(NC(NC(=O)NS(=O)(=O)c2ccccc2)C(Cl)(Cl)Cl)nc1Cl` (stereo not shown) [Compound 11, N-((2,2,2-trichloro-1-((4,6-dichloro-5-methylpyrimidin-2yl)amino)ethyl)carbamoyl)benzenesulfonamide]: the IC50 was more than 100 µM in assay [1] (Homo sapiens, HeLa); more than 100 µM in assay [2] (Homo sapiens, MDA-MB-231, 48 h); more than 100 µM in assay [3] (Homo sapiens, HepG2, 48 h); more than 100 µM in assay [4] (Homo sapiens, MCF7, 48 h).
On to “1-phenethyl-3-(2,2,2-trichloro-1-((2,6-dichloropyrimidin-4-yl)amino)ethyl)urea [Compound 17]”, for which the IC50 was 60 ± 7.55 µM in assay [1]; 25.2 ± 10.8 µM in assay [2] (CCK-8, 48 h, mean ± SD); more than 100 µM in assay [3] (CCK-8, 48 h, mean ± SD); more than 100 µM in assay [4] (CCK-8, 48 h, mean ± SD).
Take `O=C(NCCc1ccccc1)NC(Nc1ncc(Cl)cn1)C(Cl)(Cl)Cl` (stereo not shown) [Compound 9, 1-phenethyl-3-(2,2,2-trichloro-1-((5-chloropyrimidin-2-yl)amino)ethyl)urea]: the IC50 in assay [1] (Homo sapiens, HeLa) is more than 100 µM; in assay [2] (Homo sapiens, MDA-MB-231, 48 h), more than 100 µM; in assay [3] (Homo sapiens, HepG2, 48 h), more than 100 µM; in assay [4] (Homo sapiens, MCF7, 48 h) it was more than 100 µM.
Regarding `O=C(NCCc1ccccc1)NC(Nc1nc(Cl)cc(Cl)n1)C(Cl)(Cl)Cl` (stereo not shown) [Compound 18, 1-phenethyl-3-(2,2,2-trichloro-1-((4,6-dichloropyrimidin-2-yl)amino)ethyl)urea, sodium salt], the IC50 in assay [1] (Homo sapiens, HeLa) was 36.7 ± 1.23 µM; in assay [2] (Homo sapiens, MDA-MB-231, 48 h), 50.4 ± 3.07 µM; in assay [3] (Homo sapiens, HepG2, 48 h), 30.59 ± 0.1 µM; in assay [4] (Homo sapiens, MCF7, 48 h), 33.8 ± 1.91 µM.
With `Nc1c(Cl)nc(NC(NC(=O)OCCc2ccccc2)C(Cl)(Cl)Cl)nc1Cl` (stereo not shown) [Compound 19, Phenethyl(1-((5-amino-4,6-dichloropyrimidin-2-yl)amino)-2,2,2-trichloroethyl)carbamate], the IC50 in assay [1] (Homo sapiens, HeLa) stood at 34.04 ± 0.02 µM; in assay [2] (Homo sapiens, MDA-MB-231, 48 h) it was 68.9 ± 2.67 µM; in assay [3] (Homo sapiens, HepG2, 48 h) it was 27.8 ± 1.85 µM; in assay [4] (Homo sapiens, MCF7, 48 h) it was 23.5 ± 4.17 µM.
For the molecule `Nc1cc(Cl)nc(NC(NC(=O)NCCc2ccccc2)C(Cl)(Cl)Cl)n1` (stereo not shown) [Compound 26, 1-(1-((4-amino-6-chloropyrimidin-2-yl)amino)-2,2,2-trichloroe-thyl)-3-phenethylurea], the IC50 in assay [1] (Homo sapiens, HeLa) stood at 44.7 ± 4.6 µM; in assay [2] (Homo sapiens, MDA-MB-231, 48 h), 61.6 ± 11.1 µM; in assay [3] (Homo sapiens, HepG2, 48 h), 32.8 ± 3.94 µM; in assay [4] (Homo sapiens, MCF7, 48 h) it was 44.8 ± 8.78 µM.
As for `O=C(NCCN1CCOCC1)NC(Nc1ncccn1)C(Cl)(Cl)Cl` (stereo not shown) [Compound 4, 1-(2-morpholinoethyl)-3-(2,2,2-trichloro-1-(pyrimidin-2ylamino)ethyl)urea], the concentration for half-maximal inhibition (IC50) in assay [1] (Homo sapiens, HeLa) is more than 100 µM; in assay [2] (Homo sapiens, MDA-MB-231, 48 h) it was more than 100 µM; in assay [3] (Homo sapiens, HepG2, 48 h), more than 100 µM; in assay [4] (Homo sapiens, MCF7, 48 h), more than 100 µM; in assay [5], more than 80 µM.
Consider `Cc1ncc([N+](=O)[O-])n1CCNC(=O)NC(n1cnc2c(N)nc(F)nc21)C(Cl)(Cl)Cl` (stereo not shown) [Compound 29, 1-(1-(6-amino-2-fluoro-9H-purin-9-yl)-2,2,2-trichloroethyl)-3-(2-(2-methyl-5-nitro-1H-imidazol-1-yl)ethyl)urea], for which the IC50 is 0.08 ± 0.01 µM in assay [1] (Homo sapiens, HeLa); 0.37 ± 0.07 µM in assay [2] (Homo sapiens, MDA-MB-231, 48 h); 0.13 ± 0.05 µM in assay [3] (Homo sapiens, HepG2, 48 h); 0.23 ± 0.09 µM in assay [4] (Homo sapiens, MCF7, 48 h).
In the case of `O=C(NCCc1ccccc1)NC(Nc1ncc(F)cn1)C(Cl)(Cl)Cl` (stereo not shown) [Compound 16, 1-phenethyl-3-(2,2,2-trichloro-1-((5-fluoropyrimidin-2-yl)amin-no)ethyl)urea], the IC50 in assay [1] (Homo sapiens, HeLa) was more than 100 µM; in assay [2] (Homo sapiens, MDA-MB-231, 48 h) it was more than 100 µM; in assay [3] (Homo sapiens, HepG2, 48 h), more than 100 µM; in assay [4] (Homo sapiens, MCF7, 48 h), more than 100 µM.
`Cc1c(Cl)nc(NC(NC(=O)NCCc2ccccc2)C(Cl)(Cl)Cl)nc1Cl` (stereo not shown) [Compound 12, 1-phenethyl-3-(2,2,2-trichloro-1-((4,6-dichloro-5-methylpyrimidin-2-yl)amino)ethyl)urea]: the IC50 is 43.5 ± 20.4 µM in assay [1] (Homo sapiens, HeLa); more than 100 µM in assay [2] (Homo sapiens, MDA-MB-231, 48 h); 27.1 ± 5.27 µM in assay [3] (Homo sapiens, HepG2, 48 h); 27.7 ± 2.13 µM in assay [4] (Homo sapiens, MCF7, 48 h).
Taken in the same sequence, the figures for `O=C(NCCc1ccccc1)NC(NNc1nccc(C(F)(F)F)n1)C(Cl)(Cl)Cl` (stereo not shown) [Compound 30, 1-phenethyl-3-(2,2,2-trichloro-1-(2-(4-(trifluoromethyl)pyrimi-din-2-yl)hydrazinyl)ethyl)urea] were more than 100 µM, 73 ± 42.7 µM, 58 ± 10.6 µM and 72.4 ± 30.9 µM.
Turning to `Nc1nc(F)nc2c1ncn2C(NC(=O)NCCc1ccccc1)C(Cl)(Cl)Cl` (stereo not shown) [Compound 28, 1-(1-(6-amino-2-fluoro-9H-purin-9-yl)-2,2,2-trichloroethyl)-3-phenethylurea], the IC50 in assay [1] (Homo sapiens, HeLa) was 0.17 ± 0.08 µM; in assay [2] (Homo sapiens, MDA-MB-231, 48 h), 0.61 ± 0.12 µM; in assay [3] (Homo sapiens, HepG2, 48 h) it was 0.28 ± 0.13 µM; in assay [4] (Homo sapiens, MCF7, 48 h) it was 0.41 ± 0.05 µM.
Taken in the same sequence, the figures for `COC(=O)c1cnc(NC(NC(=O)NCCc2ccccc2)C(Cl)(Cl)Cl)nc1C` (stereo not shown) [Compound 24, Methyl-4-methyl-2-((2,2,2-trichloro-1-(3-phenethylureido)eth-yl)amino)pyrimidine-5-carboxylate] were more than 100 µM, 58.6 ± 18.4 µM, 32.4 ± 5 µM and 29.2 ± 3.46 µM.
As to `O=C(NC1CCCCC1)NC(Nc1ncccn1)C(Cl)(Cl)Cl` (stereo not shown) [Compound 3, 1-cyclohexyl-3-(2,2,2-trichloro-1-(pyrimidin-2-ylamino)ethyl)urea], the IC50 in assay [1] (Homo sapiens, HeLa) was more than 100 µM; in assay [2] (Homo sapiens, MDA-MB-231, 48 h) it was more than 100 µM; in assay [3] (Homo sapiens, HepG2, 48 h), more than 100 µM; in assay [4] (Homo sapiens, MCF7, 48 h), more than 100 µM; in assay [5], more than 80 µM.
On to `N#Cc1cnc(NC(NC(=O)NCCc2ccccc2)C(Cl)(Cl)Cl)nc1` (stereo not shown) [Compound 15, 1-phenethyl-3-(2,2,2-trichloro-1-((5-cyanopyrimidin-2-yl)amin-o)ethyl)urea], for which the IC50 in assay [1] (Homo sapiens, HeLa) is more than 100 µM; in assay [2] (Homo sapiens, MDA-MB-231, 48 h) it was more than 100 µM; in assay [3] (Homo sapiens, HepG2, 48 h), more than 100 µM; in assay [4] (Homo sapiens, MCF7, 48 h), more than 100 µM.
Consider `O=C(NC(Nc1ncc(Cl)cn1)C(Cl)(Cl)Cl)NS(=O)(=O)c1ccccc1` (stereo not shown) [Compound 10, N-((2,2,2-trichloro-1-((5-chloropyrimidin-2yl)amino)ethyl)carbamoyl)benzenesul fonamide], for which the IC50 is more than 100 µM in assay [1] (Homo sapiens, HeLa); more than 100 µM in assay [2] (Homo sapiens, MDA-MB-231, 48 h); more than 100 µM in assay [3] (Homo sapiens, HepG2, 48 h); more than 100 µM in assay [4] (Homo sapiens, MCF7, 48 h).
With `O=C(NCCc1ccccc1)NC(Nc1ncc([N+](=O)[O-])cn1)C(Cl)(Cl)Cl` (stereo not shown) [Compound 14, 1-phenethyl-3-(2,2,2-trichloro-1-((5-nitropyrimidin-2-yl)amin-o)ethyl)urea], the IC50 was 79.6 ± 45.2 µM in assay [1] (Homo sapiens, HeLa); more than 100 µM in assay [2] (Homo sapiens, MDA-MB-231, 48 h); 51.8 ± 2.43 µM in assay [3] (Homo sapiens, HepG2, 48 h); 44.7 ± 7.62 µM in assay [4] (Homo sapiens, MCF7, 48 h).
Taken in the same sequence, the figures for `Nc1nc(Cl)cc(NC(NC(=O)NCCc2ccccc2)C(Cl)(Cl)Cl)n1` (stereo not shown) [Compound 25, 1-(1-((2-amino-6-chloropyrimidin-4-yl)amino)-2,2,2-trichloroe-thyl)-3-phenethylurea] were 41.6 ± 8.81 µM, 52.2 ± 0.63 µM, 32.5 ± 6.31 µM and 37.3 ± 1.63 µM.
Take `Cc1cnc(NC(NC(=O)NCCc2ccccc2)C(Cl)(Cl)Cl)nc1` (stereo not shown) [Compound 23, 1-phenethyl-3-(2,2,2-trichloro-1-((5-methylpyrimidin-2-yl)ami-no)ethyl)urea]: the IC50 is more than 100 µM in assay [1] (Homo sapiens, HeLa); more than 100 µM in assay [2] (Homo sapiens, MDA-MB-231, 48 h); 67.9 ± 6.74 µM in assay [3] (Homo sapiens, HepG2, 48 h); 60.4 ± 3.91 µM in assay [4] (Homo sapiens, MCF7, 48 h).
On to `Cc1ccc(S(=O)(=O)NC(=O)NC(Nc2nccc(C(F)(F)F)n2)C(Cl)(Cl)Cl)cc1` (stereo not shown) [Compound 8, 4-methyl-N-((2,2,2-trichloro-1-((4-(trifluoromethyl)pyrimidin-2-yl)amino)ethyl)carbamoyl)benzenesulfonamide], for which the IC50 in assay [1] (Homo sapiens, HeLa) was more than 100 µM; in assay [2] (Homo sapiens, MDA-MB-231, 48 h) it was more than 100 µM; in assay [3] (Homo sapiens, HepG2, 48 h), more than 100 µM; in assay [4] (Homo sapiens, MCF7, 48 h), more than 100 µM.
In the case of `Nc1c(Cl)nc(NC(NC(=O)NCCN2CCOCC2)C(Cl)(Cl)Cl)nc1Cl` (stereo not shown) [Compound 21, 1-(1-((5-amino-4,6-dichloropyrimidin-2-yl)-l4-azanyl)-2,2,2-trichloroethyl)-3-(2-morpholinoethyl)urea], the IC50 in assay [1] (Homo sapiens, HeLa) is more than 100 µM; in assay [2] (Homo sapiens, MDA-MB-231, 48 h), more than 100 µM; in assay [3] (Homo sapiens, HepG2, 48 h) it was more than 100 µM; in assay [4] (Homo sapiens, MCF7, 48 h) it was more than 100 µM.
In the case of `CCCNC(=O)NC(Nc1ncc([N+](=O)[O-])cn1)C(Cl)(Cl)Cl` (stereo not shown) [Compound 13, 1-propyl-3-(2,2,2-trichloro-1-((5-nitropyrimidin-2-yl)amino)ethyl)urea], the IC50 in assay [1] (Homo sapiens, HeLa) is more than 100 µM; in assay [2] (Homo sapiens, MDA-MB-231, 48 h), more than 100 µM; in assay [3] (Homo sapiens, HepG2, 48 h) it was more than 100 µM; in assay [4] (Homo sapiens, MCF7, 48 h), more than 100 µM.
For the molecule “1-phenethyl-3-(2,2,2-trichloro-1-((4,6-difluoropyrimidin-2-yl)amino)ethyl)urea [Compound 22]”, the IC50 in assay [1] was 31.9 ± 3.29 µM; in assay [2] (CCK-8, 48 h, mean ± SD), 27.81 ± 0.17 µM; in assay [3] (CCK-8, 48 h, mean ± SD), 26.13 ± 0.05 µM; in assay [4] (CCK-8, 48 h, mean ± SD), 24.8 ± 9.49 µM.
Regarding `O=C(NCCc1ccccc1)NC(Nc1ncccn1)C(Cl)(Cl)Cl` (stereo not shown) [Compound 2, 1-phenethyl-3-(2,2,2-trichloro-1-(pyrimidin-2-ylamino)ethyl)urea], the IC50 was 86.7 ± 4.25 µM in assay [1] (Homo sapiens, HeLa); more than 100 µM in assay [2] (Homo sapiens, MDA-MB-231, 48 h); 66.3 ± 1.91 µM in assay [3] (Homo sapiens, HepG2, 48 h); 79.3 ± 20.3 µM in assay [4] (Homo sapiens, MCF7, 48 h).
